From patent publication US6660774B2, “Use of (+)-tramadol, O-demethyltramadol or (+)-O-demethyl-tramadol, O-desmethyl-N-mono-desmethyl-tramadol or (+)- O-desmethyl-N-mono-desmethyltramadol” (Gruenethal GmbH, priority 1999, dated 2003)

Legend:
[1] = analgesic effects less pronounced on intravenous than on intracerebroventricular administration; cited from earlier work
[2] = system: virgin, female Sprague-Dawley rats (bladder function); test: Cystometric testing on conscious, virgin rats; format: in vivo, rat
[3] = 0.1 mg/kg i.v., Diff.: change relative to the initial value
[4] = 0.1 mg/kg i.v., h: after administration, at maximum action
[5] = 0.1 mg/kg i.v., v: before administration (initial value)
[6] = 0.5 mg/kg i.v., Diff.: change relative to the initial value
[7] = 0.5 mg/kg i.v., h: after administration, at maximum action
[8] = 0.5 mg/kg i.v., v: before administration (initial value)
[9] = 10.0 μg/kg i.t., Diff.: change relative to the initial value
[10] = 10.0 μg/kg i.t., h: after administration, at maximum action
[11] = 10.0 μg/kg i.t., v: before administration (initial value)
[12] = 10.0 mg/kg i.v., Diff.: change relative to the initial value
[13] = 10.0 mg/kg i.v., h: after administration, at maximum action
[14] = 10.0 mg/kg i.v., v: before administration (initial value)

CNCC1CCCCC1(O)c1cccc(O)c1 (stereo not drawn) [M5, O-desmethyl-N-mono-desmethyltramadol]
penetration of the blood-brain barrier (in words) [1]: only a limited extent

(+)-O-desmethyltramadol [(+)-M1]
Basal pressure [2, 3]: Diff.: +7% | Bladder capacity [2, 3]: Diff.: +31% | Inter-contraction interval [2, 3]: Diff.: +31% | Micturition pressure [2, 3]: Diff.: −22% | Micturition volume [2, 3]: Diff.: +48% | Residual volume [2, 3]: Diff.: −73% | Threshold pressure [2, 3]: Diff.: +32% | Basal pressure [2, 4]: h: 3.87 ± 0.43 cm H2O | Bladder capacity [2, 4]: h: 0.98 ± 0.06 ml | Inter-contraction interval [2, 4]: 5.51 ± 0.52 min | Micturition pressure [2, 4]: h: 70 ± 11 cm H2O | Micturition volume [2, 4]: h: 0.95 ± 0.09 ml | Residual volume [2, 4]: h: 0.03 ± 0.02 ml | Threshold pressure [2, 4]: h: 8.07 ± 0.97 cm H2O | Basal pressure [2, 5]: v: 3.62 ± 0.24 cm H2O | Bladder capacity [2, 5]: v: 0.75 ± 0.08 ml | Inter-contraction interval [2, 5]: 4.20 ± 0.55 min | Micturition pressure [2, 5]: v: 90 ± 12 cm H2O | Micturition volume [2, 5]: v: 0.64 ± 0.10 ml | Residual volume [2, 5]: v: 0.11 ± 0.02 ml | Threshold pressure [2, 5]: v: 6.12 ± 0.51 cm H2O | Basal pressure [2, 6]: Diff.: +25% | Bladder capacity [2, 6]: Diff.: +44% | Inter-contraction interval [2, 6]: Diff.: +46% | Micturition pressure [2, 6]: Diff.: −30% | Micturition volume [2, 6]: Diff.: +51% | Residual volume [2, 6]: Diff.: −33% | Threshold pressure [2, 6]: Diff.: +106% | Basal pressure [2, 7]: h: 4.90 ± 0.55 cm H2O | Bladder capacity [2, 7]: h: 1.35 ± 0.11 ml | Inter-contraction interval [2, 7]: 7.63 ± 0.60 min | Micturition pressure [2, 7]: h: 66 ± 10 cm H2O | Micturition volume [2, 7]: h: 1.28 ± 0.09 ml | Residual volume [2, 7]: h: 0.06 ± 0.02 ml | Threshold pressure [2, 7]: h: 15.34 ± 1.16 cm H2O | Basal pressure [2, 8]: v: 3.91 ± 0.31 cm H2O | Bladder capacity [2, 8]: v: 0.94 ± 0.08 ml | Inter-contraction interval [2, 8]: 5.23 ± 0.45 min | Micturition pressure [2, 8]: v: 94 ± 10 cm H2O | Micturition volume [2, 8]: v: 0.85 ± 0.08 ml | Residual volume [2, 8]: v: 0.09 ± 0.02 ml | Threshold pressure [2, 8]: v: 7.44 ± 1.10 cm H2O | bladder capacity (in words) ([2]; 0.1 and 0.5 mg/kg i.v.): increased | interval between micturition (in words) ([2]; 0.1 and 0.5 mg/kg i.v.): extended | threshold pressure (in words) ([2]; 0.1 and, in particular, 0.5 mg/kg i.v.): distinct rise

CNCC1CCCCC1(O)c1cccc(O)c1 (single isomer, unassigned; (+)) [(+)-M5, (+)-O-desmethyl-N-mono-desmethyltramadol]
Basal pressure [2, 9]: Diff.: −9% | Bladder capacity [2, 9]: Diff.: +61% | Inter-contraction interval [2, 9]: Diff.: +38% | Micturition pressure [2, 9]: Diff.: −46% | Micturition volume [2, 9]: Diff.: +36% | Residual volume [2, 9]: Diff.: +162% | Threshold pressure [2, 9]: Diff.: +46% | Basal pressure [2, 10]: h: 4.25 ± 0.33 cm H2O | Bladder capacity [2, 10]: h: 1.06 ± 0.06 ml | Inter-contraction interval [2, 10]: h: 5.22 ± 0.27 min | Micturition pressure [2, 10]: h: 43 ± 6 cm H2O | Micturition volume [2, 10]: h: 0.72 ± 0.04 ml | Residual volume [2, 10]: h: 0.34 ± 0.04 ml | Threshold pressure [2, 10]: h: 10.25 ± 1.01 cm H2O | Basal pressure [2, 11]: v: 4.68 ± 0.74 cm H2O | Bladder capacity [2, 11]: v: 0.66 ± 0.05 ml | Inter-contraction interval [2, 11]: v: 3.78 ± 0.35 min | Micturition pressure [2, 11]: v: 80 ± 9 cm H2O | Micturition volume [2, 11]: v: 0.53 ± 0.06 ml | Residual volume [2, 11]: v: 0.13 ± 0.01 ml | Threshold pressure [2, 11]: v: 7.0 ± 0.93 cm H2O | threshold pressure (in words) ([2]; 10 mg/kg i.v.): distinct rise | interval between micturition (in words) ([2]; 10.0 mg/kg i.v.): not shortened | Basal pressure [2, 12]: Diff.: +4% | Bladder capacity [2, 12]: Diff.: −18% | Inter-contraction interval [2, 12]: Diff.: −12% | Micturition pressure [2, 12]: Diff.: −23% | Micturition volume [2, 12]: Diff.: +9% | Residual volume [2, 12]: Diff.: −88% | Threshold pressure [2, 12]: Diff.: +69% | Basal pressure [2, 13]: h: 3.95 ± 0.35 cm H2O | Bladder capacity [2, 13]: h: 0.72 ± 0.08 ml | Inter-contraction interval [2, 13]: h: 4.30 ± 0.47 min | Micturition pressure [2, 13]: h: 41 ± 3 cm H2O | Micturition volume [2, 13]: h: 0.86 ± 0.10 ml | Residual volume [2, 13]: h: 0.01 ± 0.002 ml | Threshold pressure [2, 13]: h: 12.08 ± 1.47 cm H2O | Basal pressure [2, 14]: v: 3.78 ± 0.26 cm H2O | Bladder capacity [2, 14]: v: 0.88 ± 0.09 ml | Inter-contraction interval [2, 14]: v: 4.92 ± 0.53 min | Micturition pressure [2, 14]: v: 53 ± 4 cm H2O | Micturition volume [2, 14]: v: 0.79 ± 0.09 ml | Residual volume [2, 14]: v: 0.08 ± 0.01 ml | Threshold pressure [2, 14]: v: 7.13 ± 0.47 cm H2O | bladder capacity (in words) ([2]; intrathecally): distinct increases | interval between micturition (in words) ([2]; intrathecally): distinct increases | threshold pressure (in words) ([2]; intrathecally): increase
